In US12173018B2, “Penicillin-binding protein inhibitors” (priority 2018, dated 2024) one finds EC50 and MIC data, which are given here for 7 molecules.

Read-outs that look alike come from different tables or passages of the source.

One test concerns the target E. coli PBP4 (Escherichia coli (strain K12), UniProt P24228). Briefly: E. coli PBP4 Bocillin-FL fluorescence polarization competition binding assay. From the text: To determine the ability of boronic acid-based test PBP inhibitors to bind Penicillin Binding Proteins (PBPs), Bocillin-FL (fluorescently-labeled penicillin V; ThermoFisher Scientific) was used in a fluorescence polarization (FP) competition binding assay to assess inhibitor binding to PBP2, PBP3 or PBP4 from Escherichia coli. PBPs were cloned and purified as described previously (King, D. T, et al., ACS Infectious Diseases 2015, 1, 175-184). To establish assay conditions for competition binding, an enzyme titration/saturation binding experiment was initially performed. Bocillin-FL was prepared at 0.2 μM in a buffer comprised of 50 mM Hepes (pH 8.0), 300 mM NaCl and 5% (v/v) glycerol. Saturation binding was performed by mixing 40 μl of PBP solutions ranging in concentrations from 0-12 μM with 40 μl of the 0.2 μM Bocillin-FL solution, in individual wells of a black 384-well microplate. FP was measured immediately upon mixing (Excitation, 490 nm; Emission, 520 nm; g-factor, 0.96), using a Cytation3 (BioTek) microplate reader and measured continuously for up to 120 minutes. […] Assays (80 μl final volume) were performed with PBPs at a final concentration of 1.5 μM, Bocillin-FL at 0.1 μM and beta-lactam concentrations that ranged from 0-1000 μM. […] Bocillin-FL was added and the FP immediately measured for 60 minutes (90 minutes for PBP2). The beta-lactam potency was reported as the concentration of beta-lactam required to reduce binding of Bocillin-FL by […] (EC50). […] Binding assays for boronic acid PBP inhibitors were performed in an identical fashion.

The subject of the next test is E. coli ATCC 25922. Briefly: Broth microdilution MIC, E. coli ATCC 25922. It counts as cell-based. As to conditions: Escherichia coli, ATCC25922, read-out: MIC E. coli 25922. A digest of the protocol: (§1)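 Colonies from Mueller Hinton II agar were grown 3-5 hours at 37° C in cation-supplemented broth, adjusted by OD600, then added to 2-fold compound dilutions at 5×10^5 CFU/mL. After 16-20 hours at 37° C, MICs were scored visually.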
In general terms: Dilution methods test growth across graded concentrations, often in twofold steps.

For another test, the system named is E. coli AG100. Briefly: Broth microdilution MIC, E. coli AG100 (wild-type parent). It counts as cell-based. As to conditions: Escherichia coli; wild-type parent E. coli AG100, broth microdilution; read-out: MIC E. coli AG100. A digest of the protocol: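 Starting inoculum of 5×10^5 CFU/mL, from colonies grown 3-5 h in Mueller-Hinton broth with divalent cations, added to two-fold compound dilution series.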

The test system of the next test is E. coli 901C. Briefly: microbe, parasite or virus in culture. As to conditions: Escherichia coli; hyper-permeable E. coli 901C, broth microdilution; read-out: MIC E. coli 901C. It counts as cell-based. A digest of the protocol: as §1
A further test concerns E. coli AG100A. Briefly: microbe, parasite or virus in culture. It counts as cell-based. As to conditions: Escherichia coli, read-out: MIC E. coli AG100A. A digest of the protocol: as §1
The test system of a further test is E. coli D22. Put plainly: microbe, parasite or virus in culture. It counts as cell-based. As to conditions: Escherichia coli; hyper-permeable E. coli D22, broth microdilution; read-out: MIC E. coli D22. In outline: as §1
The test system of a further test is K. pneumoniae SI-117. Put plainly: microbe, parasite or virus in culture. It counts as cell-based. As to conditions: Klebsiella pneumoniae, SI117, read-out: MIC K. pneumoniae SI-117. A digest of the protocol: as §1
Another test has as its system K. pneumoniae UMM. Briefly: microbe, parasite or virus in culture. As to conditions: Klebsiella pneumoniae; K. pneumoniae UMM producing SHV-5 and KPC-2; read-out: MIC K. pneumoniae UMM. It counts as cell-based. In outline: as §1
Test [1] concerns P. aeruginosa (ΔmexAB-oprM). Briefly: microbe, parasite or virus in culture. It counts as cell-based. As to conditions: Pseudomonas aeruginosa, read-out: MIC P. aeruginosa ΔmexAB-OprM. A digest of the protocol:
as §1

The subject of the next test is P. aeruginosa ATCC 35151. Put plainly: microbe, parasite or virus in culture. It counts as cell-based. As to conditions: Pseudomonas aeruginosa, ATCC35151; hyper-permeable P. aeruginosa ATCC 35151; read-out: MIC P. aeruginosa ATCC 35151. A digest of the protocol:
as §1

Another test concerns K. pneumoniae 848844. Briefly: microbe, parasite or virus in culture. As to conditions: Klebsiella pneumoniae; K. pneumoniae 848844 producing SHV-11 and KPC-2; read-out: MIC K. pneumoniae 848844. It counts as cell-based, Klebsiella pneumoniae. In outline: as §1
The next test concerns P. aeruginosa ATCC 27853. Put plainly: Broth microdilution MIC, P. aeruginosa ATCC 27853. It counts as cell-based. As to conditions: Pseudomonas aeruginosa, ATCC27853, read-out: MIC P. aeruginosa ATCC 27853. On the procedure:
To determine the ability of test compounds to potentiate the inhibition of the growth of bacterial strains, classic cell based broth microdilution minimum inhibitory concentration (MIC) assays were employed. MIC assays are performed according to CLSI methods except where otherwise noted (CLSI, 2011 and CLSI, 2009). The reference type strain E. coli ATCC 25922, the wild-type parent strain E. coli AG100, the hyper-permeable E. coli 901C and E. coli D22 and the E. coli AG100A strain lacking the acrAB efflux pump encoding genes were used to determine the ability of the PBP inhibitors to penetrate the outer membrane of gram-negative bacteria and inhibit bacterial growth. […] The P. aeruginosa PAO1, P. aeruginosa ATCC 27853 and A. baumannii ATCC 19606, along with the hyper-permeable P. aeruginosa ATCC 35151 and an engineered efflux pump-compromised strain of P. aeruginosa (ΔmexAB-oprM) were used to determine the ability of PBP inhibitors to penetrate the outer membrane of P. aeruginosa and A. baumannii and assess antibacterial activity against these important gram-negative organisms.
Briefly, cryo-preserved bacterial cultures of challenge strains are streaked for isolation on appropriate agar medium, in this case Mueller Hinton II agar. Following incubation to allow growth of the colonies, plates are sealed with parafilm and stored refrigerated for up to two weeks. For preparation of assay inoculum and to ensure low variability, at least 5 colonies are picked from the agar plates with an inoculating loop and aseptically transferred to a culture tube containing 3 mL of Mueller-Hinton Broth (supplemented with divalent cations to required levels based on Manufacturers' certification). The broth culture is grown for 3-5 hours at 37° C. with shaking at 200 rpm. Meanwhile, 2-fold serial dilutions of test compounds are conducted in a 96 well plate with a final volume of 75 μL per well at 2-fold the final desired concentration. After the dilution plates are set up the growing cultures are then diluted in a cuvette containing MH II broth and the optical density is measured at 600 nm. The Inoculum is diluted such that 75 μL of this culture in Mueller-Hinton Broth results in a starting bacterial concentration of 5×10^5 CFU/mL when added to the dilution plates. The plates are incubated for 16-20 hours at 37° C. The MIC values are read visually as the lowest concentration well with no bacterial growth.

Another test has as its system A. baumannii ATCC 19606. Briefly: Broth microdilution MIC, A. baumannii ATCC 19606. It counts as cell-based. As to conditions: Acinetobacter baumannii, ATCC19606, read-out: MIC A. baumannii ATCC 19606. A digest of the protocol:
as §1

The next test concerns the target E. coli PBP3 (Escherichia coli (strain K12), UniProt P0AD68). Put plainly: E. coli PBP3 Bocillin-FL fluorescence polarization competition binding assay. In outline: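 FP competition: 1.5 μM PBP, 0.1 μM Bocillin-FL, cpd 0–1000 μM; 50 mM Hepes pH 8.0/300 mM NaCl/5% glycerol. Read 490/520 nm immediately after Bocillin-FL addition, 60 min. EC50 = cpd conc. lowering probe binding.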
In general terms: Fluorescence polarisation rises when a labelled molecule tumbles more slowly, as on binding a larger partner.

By EC50 is commonly meant the midpoint of the concentration-response curve. In the case of `C[C@@H](O)[C@H]1C(=O)N2C(C(=O)O)=C(S[C@@H]3CN[C@H](C(=O)N(C)C)C3)[C@H](C)[C@H]12` [meropenem, reference compound], the EC50 on E. coli PBP4 (assay validation with beta-lactams, PBP 1.5 μM, Bocillin-FL 0.1 μM, read-out: EC50 with PBP4 (reduction of Bocillin-FL binding)) was under 2 µM.

As to `CC(=O)NCCN1CCN(C(=O)NC(C(=O)N[C@H]2Cc3ccc(F)c(C(=O)O)c3OB2O)c2ccc(O)c(O)c2Cl)C(=O)C1=O` (stereo partly drawn) [Example 243, (3R)-3-(2-(4-(2-acetamidoethyl)-2,3-dioxopiperazine-1-carboxamido)-2-(2-chloro-3,4-dihydroxyphenyl)acetamido)-7-fluoro-2-hydroxy-3,4-dihydro-2H-benzo[e][1,2]oxaborinine-8-carboxylic acid], the MIC is 8 to 16 µg/mL in the test with E. coli ATCC 25922; 2 to 4 µg/mL with E. coli AG100; 0.5 to 1 µg/mL in the test with E. coli 901C; 0.5 to 1 µg/mL with E. coli AG100A; 2 to 4 µg/mL in the test with E. coli D22; 2 to 4 µg/mL in the test on K. pneumoniae SI-117. Besides, the MIC was 2 to 4 µg/mL with K. pneumoniae UMM; under 0.25 µg/mL in [1]; under 0.25 µg/mL with P. aeruginosa ATCC 35151; 2 to 4 µg/mL in the test with K. pneumoniae 848844; under 0.25 µg/mL in the test on P. aeruginosa ATCC 27853; 0.5 to 1 µg/mL in the test with A. baumannii ATCC 19606.

For the molecule `NCCCN1CCN(C(=O)N[C@@H](C(=O)N[C@H]2Cc3cccc(C(=O)O)c3OB2O)c2ncc(O)cc2F)C(=O)C1=O` [Example 252, (R)-3-((R)-2-(4-(3-aminopropyl)-2,3-dioxopiperazine-1-carboxamido)-2-(3-fluoro-5-hydroxypyridin-2-yl)acetamido)-2-hydroxy-3,4-dihydro-2H-benzo[e][1,2]oxaborinine-8-carboxylic acid], the MIC in the test on E. coli ATCC 25922 was 8 to 16 µg/mL; in the test with E. coli AG100, 8 to 16 µg/mL; with E. coli 901C, 0.5 to 1 µg/mL; in the test on E. coli AG100A, 0.5 to 1 µg/mL; in the test with E. coli D22, 2 to 4 µg/mL; in the test on K. pneumoniae SI-117, 32 to 64 µg/mL. Further, the MIC with K. pneumoniae UMM is 8 to 16 µg/mL; in test [1] it was 8 to 16 µg/mL; in the test on P. aeruginosa ATCC 35151, under 0.25 µg/mL; in the test with K. pneumoniae 848844 it was 32 to 64 µg/mL; in the test on P. aeruginosa ATCC 27853, 32 to 64 µg/mL; with A. baumannii ATCC 19606 it was over 128 µg/mL.

`CCN1CC(C)(C)N(C(=O)NC(C(=O)N[C@H]2Cc3cccc(C(=O)O)c3OB2O)c2ncc(O)cc2F)C(=O)C1=O` (stereo partly drawn) [Example 245, (3R)-3-(2-(4-ethyl-2,2-dimethyl-5,6-dioxopiperazine-1-carboxamido)-2-(3-fluoro-5-hydroxypyridin-2-yl)acetamido)-2-hydroxy-3,4-dihydro-2H-benzo[e][1,2]oxaborinine-8-carboxylic acid]: the MIC is over 128 µg/mL in the test with E. coli ATCC 25922; over 128 µg/mL in the test on E. coli AG100; 8 to 16 µg/mL with E. coli 901C; 32 to 64 µg/mL in the test with E. coli AG100A; over 128 µg/mL in the test with E. coli D22; over 128 µg/mL with K. pneumoniae SI-117. For the same molecule, the MIC is over 128 µg/mL with K. pneumoniae UMM; over 128 µg/mL in [1]; 32 to 64 µg/mL in the test on P. aeruginosa ATCC 35151; over 128 µg/mL with K. pneumoniae 848844; over 128 µg/mL with P. aeruginosa ATCC 27853; over 128 µg/mL in the test on A. baumannii ATCC 19606.

On to `CNCCN1CCN(C(=O)N[C@@H](C(=O)N[C@H]2Cc3ccc(F)c(C(=O)O)c3OB2O)c2ccc(O)c(O)c2Cl)C(=O)C1=O` [Example 242, (R)-3-((R)-2-(2-chloro-3,4-dihydroxyphenyl)-2-(4-(2-(methylamino)ethyl)-2,3-dioxopiperazine-1-carboxamido)acetamido)-7-fluoro-2-hydroxy-3,4-dihydro-2H-benzo[e][1,2]oxaborinine-8-carboxylic acid], for which the MIC fell in the range of 8 to 16 µg/mL with E. coli ATCC 25922; 0.5 to 1 µg/mL in the test on E. coli AG100; 0.5 to 1 µg/mL in the test on E. coli 901C; 0.5 to 1 µg/mL in the test with E. coli AG100A; 0.5 to 1 µg/mL in the test with E. coli D22; 2 to 4 µg/mL in the test on K. pneumoniae SI-117. Moreover, the MIC is 0.5 to 1 µg/mL in the test on K. pneumoniae UMM; under 0.25 µg/mL in test [1]; under 0.25 µg/mL in the test with P. aeruginosa ATCC 35151; 0.5 to 1 µg/mL with K. pneumoniae 848844; 0.5 to 1 µg/mL with P. aeruginosa ATCC 27853; 0.5 to 1 µg/mL in the test on A. baumannii ATCC 19606.

In the case of `CCN1CCN(C(=O)N[C@H](Cc2ccc(O)c(O)c2)C(=O)N[C@H]2Cc3cccc(C(=O)O)c3OB2O)C(=O)C1=O` [Example 40, (R)-3-((R)-3-(3,4-dihydroxyphenyl)-2-(4-ethyl-2,3-dioxopiperazine-1-carboxamido)propanamido)-2-hydroxy-3,4-dihydro-2H-benzo[e][1,2]oxaborinine-8-carboxylic acid], the EC50 on E. coli PBP3 and at E. coli PBP4 was 30 to 500 µM in each case.

`CCN1C[C@H](CCN)N(C(=O)NC(C(=O)N[C@H]2Cc3cccc(C(=O)O)c3OB2O)c2ncc(O)cc2F)C(=O)C1=O` (stereo partly drawn) [Example 240, (3R)-3-(2-((S)-6-(2-aminoethyl)-4-ethyl-2,3-dioxopiperazine-1-carboxamido)-2-(3-fluoro-5-hydroxypyridin-2-yl)acetamido)-2-hydroxy-3,4-dihydro-2H-benzo[e][1,2]oxaborinine-8-carboxylic acid]: the MIC with E. coli ATCC 25922 is over 128 µg/mL; in the test on E. coli AG100, over 128 µg/mL; in the test on E. coli 901C, 8 to 16 µg/mL; in the test on E. coli AG100A, 8 to 16 µg/mL; with E. coli D22 it was 8 to 16 µg/mL; in the test with K. pneumoniae SI-117 it was over 128 µg/mL. In addition, the MIC was over 128 µg/mL in the test with K. pneumoniae UMM; over 128 µg/mL in test [1]; 8 to 16 µg/mL with P. aeruginosa ATCC 35151; over 128 µg/mL in the test on K. pneumoniae 848844; over 128 µg/mL in the test on P. aeruginosa ATCC 27853; over 128 µg/mL with A. baumannii ATCC 19606.
